Source: patent US11173151B2, “Substituted triazole derivatives and uses thereof” (BAYER AKTIENGESELLSCHAFT, priority 2017, dated 2021)

How the values were obtained:
human V1a receptor = target: T1, human V1a receptor (Homo sapiens, UniProt P37288); test: Cellular in vitro assay for determining vasopressin receptor activity, V1a receptor cell line (CHO, aequorin luminescence); format: cell-based; settings: for IC50: CHO cell line transfected with human V1a receptor, [Arg]-vasopressin at EC50 concentration, read-out: IC50 hV1a; for ratio IC50 hV2/hV1a: selectivity ratio IC50 hV2 / IC50 hV1a
T1 construct: expressed in transfected cells; host or cells: CHO K1 (ATCC), also stably transfected with a modified aequorin
Method in brief: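 Antagonism is measured in stable CHO K1 transfectants coexpressing the Gαq-coupled receptor and a calcium-sensitive aequorin photoprotein. Agonist challenge uses [Arg]-vasopressin at EC50 after a 10-minute compound exposure; IC50 values come from the luminescence signal.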

human V2 receptor = target: T2, human V2 receptor (Homo sapiens, UniProt P30518); test: Cellular in vitro assay for determining vasopressin receptor activity, V2 receptor cell line (CHO, CRE-luciferase); format: cell-based; settings: CHO cell line transfected with human V2 receptor; [Arg8]-vasopressin at EC50 concentration, 3 hours; read-out: IC50 hV2
T2 construct: expressed in transfected cells; host or cells: CHO K1 (ATCC) expressing firefly luciferase under a CRE-responsive promoter
T2 sequence (P30518 whole entry): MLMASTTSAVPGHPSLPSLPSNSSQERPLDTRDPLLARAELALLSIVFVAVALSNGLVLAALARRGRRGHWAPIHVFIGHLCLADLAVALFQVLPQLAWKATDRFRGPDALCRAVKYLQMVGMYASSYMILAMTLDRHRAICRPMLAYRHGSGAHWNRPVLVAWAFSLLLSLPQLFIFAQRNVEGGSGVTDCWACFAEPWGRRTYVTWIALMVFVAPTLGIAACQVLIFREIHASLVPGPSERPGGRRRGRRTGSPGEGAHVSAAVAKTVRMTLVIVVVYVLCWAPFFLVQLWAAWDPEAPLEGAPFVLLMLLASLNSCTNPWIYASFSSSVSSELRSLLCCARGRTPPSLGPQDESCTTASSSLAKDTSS

T1 sequence (P37288 whole entry): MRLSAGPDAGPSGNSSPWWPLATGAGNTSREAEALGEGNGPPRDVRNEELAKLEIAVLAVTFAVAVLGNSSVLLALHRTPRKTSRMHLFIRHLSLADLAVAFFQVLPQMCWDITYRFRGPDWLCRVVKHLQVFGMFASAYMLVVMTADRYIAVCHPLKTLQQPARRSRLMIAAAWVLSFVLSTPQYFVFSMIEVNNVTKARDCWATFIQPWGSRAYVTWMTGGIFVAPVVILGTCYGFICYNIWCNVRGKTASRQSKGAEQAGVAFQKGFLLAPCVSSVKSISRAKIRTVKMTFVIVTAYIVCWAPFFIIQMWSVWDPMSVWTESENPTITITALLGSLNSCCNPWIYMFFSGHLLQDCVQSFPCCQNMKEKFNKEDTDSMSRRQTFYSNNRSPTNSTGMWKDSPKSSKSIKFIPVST

For `CN(C)C1CN(C(=O)c2ccccc2-n2cnc(Cn3nc(-c4ccc(Cl)cc4)n(C[C@H](O)C(F)(F)F)c3=O)n2)C1` [Example 286, 5-(4-Chlorophenyl)-2-{[1-(2-{[3-(dimethylamino)azetidin-1-yl]carbonyl}phenyl)-1H-1,2,4-triazol-3-yl]methyl}-4-[(2S)-3,3,3-trifluoro-2-hydroxypropyl]-2,4-dihydro-3H-1,2,4-triazol-3-one], the IC50 (human V1a receptor) was 14.5 nM, the “ratio IC50 hV2/hV1a” value (human V1a receptor) was 172.4 and the IC50 (human V2 receptor) was 2500 nM.

`CC1(C)CN(C(=O)c2ccccc2-n2cnc(Cn3nc(-c4ccc(Cl)cc4)n(C[C@H](O)C(F)(F)F)c3=O)n2)CCO1` [Example 287, 5-(4-Chlorophenyl)-2-[(1-{2-[(2,2-dimethylmorpholin-4-yl)carbonyl]phenyl}-1H-1,2,4-triazol-3-yl)methyl]-4-[(2S)-3,3,3-trifluoro-2-hydroxypropyl]-2,4-dihydro-3H-1,2,4-triazol-3-one] was tested, and the IC50 (human V1a receptor) was 5.7 nM, the “ratio IC50 hV2/hV1a” value (human V1a receptor) was 386.0 and the IC50 (human V2 receptor) was 2200 nM.

For `CN1CCN(C(=O)c2ccccc2-n2cnc(Cn3nc(-c4ccc(Cl)cc4)n(C[C@H](O)C(F)(F)F)c3=O)n2)CC1=O` [Example 288, 4-{2-[3-({3-(4-Chlorophenyl)-5-oxo-4-[(2S)-3,3,3-trifluoro-2-hydroxypropyl]-4,5-dihydro-1H-1,2,4-triazol-1-yl}methyl)-1H-1,2,4-triazol-1-yl]benzoyl}-1-methylpiperazin-2-one], the IC50 (human V1a receptor) was 46 nM, the “ratio IC50 hV2/hV1a” value (human V1a receptor) was 92.4 and the IC50 (human V2 receptor) was 4250 nM.

In the case of `CN(CC1CC1)C(=O)c1ccccc1-n1cnc(Cn2nc(-c3ccc(Cl)cc3)n(C[C@H](O)C(F)(F)F)c2=O)n1` [Example 289, 2-[3-({3-(4-Chlorophenyl)-5-oxo-4-[(2S)-3,3,3-trifluoro-2-hydroxypropyl]-4,5-dihydro-1H-1,2,4-triazol-1-yl}methyl)-1H-1,2,4-triazol-1-yl]-N-(cyclopropylmethyl)-N-methylbenzamide], the IC50 (human V1a receptor) is reported as 0.83 nM, the “ratio IC50 hV2/hV1a” value (human V1a receptor) is reported as 536.1 and the IC50 (human V2 receptor) is reported as 445 nM.

For `O=C(c1ccccc1-n1cnc(Cn2nc(-c3ccc(Cl)cc3)n(C[C@H](O)C(F)(F)F)c2=O)n1)N1CC(O)C1` [Example 290, 5-(4-Chlorophenyl)-2-[(1-{2-[(3-hydroxyazetidin-1-yl)carbonyl]phenyl}-1H-1,2,4-triazol-3-yl)methyl]-4-[(2S)-3,3,3-trifluoro-2-hydroxypropyl]-2,4-dihydro-3H-1,2,4-triazol-3-one], the IC50 (human V1a receptor) was 9.1 nM, the “ratio IC50 hV2/hV1a” value (human V1a receptor) was 92.9 and the IC50 (human V2 receptor) was 845 nM.

`O=C(c1ccccc1-n1cnc(Cn2nc(-c3ccc(Cl)cc3)n(C[C@H](O)C(F)(F)F)c2=O)n1)N1CC[C@@H](O)C1` [Example 291, 5-(4-Chlorophenyl)-2-{[1-(2-{[(3R)-3-hydroxypyrrolidin-1-yl]carbonyl}phenyl)-1H-1,2,4-triazol-3-yl]methyl}-4-[(2S)-3,3,3-trifluoro-2-hydroxypropyl]-2,4-dihydro-3H-1,2,4-triazol-3-one] was tested, and the IC50 (human V1a receptor) was 6.6 nM, the “ratio IC50 hV2/hV1a” value (human V1a receptor) was 174.2 and the IC50 (human V2 receptor) was 1150 nM.

For `CC1C=CC(C)N1C(=O)c1ccccc1-n1cnc(Cn2nc(-c3ccc(Cl)cc3)n(C[C@H](O)C(F)(F)F)c2=O)n1` (stereo partly drawn) [Example 293, 5-(4-Chlorophenyl)-2-[(1-{2-[(2,5-dimethyl-2,5-dihydro-1H-pyrrol-1-yl)carbonyl]phenyl}-1H-1,2,4-triazol-3-yl)methyl]-4-[(2S)-3,3,3-trifluoro-2-hydroxypropyl]-2,4-dihydro-3H-1,2,4-triazol-3-one], the IC50 (human V1a receptor) was 4.7 nM, the “ratio IC50 hV2/hV1a” value (human V1a receptor) was 178.7 and the IC50 (human V2 receptor) was 840 nM.

With `C=CCN(C)C(=O)c1ccccc1-n1cnc(Cn2nc(-c3ccc(Cl)cc3)n(C[C@H](O)C(F)(F)F)c2=O)n1` [Example 294, 2-[3-({3-(4-Chlorophenyl)-5-oxo-4-[(2S)-3,3,3-trifluoro-2-hydroxypropyl]-4,5-dihydro-1H-1,2,4-triazol-1-yl}methyl)-1H-1,2,4-triazol-1-yl]-N-methyl-N-(prop-2-en-1-yl)benzamide] the IC50 (human V1a receptor) was 2.1 nM, the “ratio IC50 hV2/hV1a” value (human V1a receptor) was 735.7 and the IC50 (human V2 receptor) was 1540 nM.

In the case of `CCN(C)C(=O)c1ccccc1-n1cnc(Cn2nc(-c3ccc(Cl)cc3)n(C[C@H](O)C(F)(F)F)c2=O)n1` [Example 295, 2-[3-({3-(4-Chlorophenyl)-5-oxo-4-[(2S)-3,3,3-trifluoro-2-hydroxypropyl]-4,5-dihydro-1H-1,2,4-triazol-1-yl}methyl)-1H-1,2,4-triazol-1-yl]-N-ethyl-N-methylbenzamide], the IC50 (human V1a receptor) is reported as 2.5 nM, the “ratio IC50 hV2/hV1a” value (human V1a receptor) is reported as 30.8 and the IC50 (human V2 receptor) is reported as 77 nM.

For `Cc1cccnc1NC(=O)c1ccccc1-n1cnc(Cn2nc(-c3ccc(Cl)cc3)n(C[C@H](O)C(F)(F)F)c2=O)n1` [Example 296, 2-[3-({3-(4-Chlorophenyl)-5-oxo-4-[(2S)-3,3,3-trifluoro-2-hydroxypropyl]-4,5-dihydro-1H-1,2,4-triazol-1-yl}methyl)-1H-1,2,4-triazol-1-yl]-N-(3-methylpyridin-2-yl)benzamide], the IC50 (human V1a receptor) was 3.95 nM, the “ratio IC50 hV2/hV1a” value (human V1a receptor) was 126.6 and the IC50 (human V2 receptor) was 500 nM.

`O=C(NCc1ccccc1)c1ccccc1-n1cnc(Cn2nc(-c3ccc(Cl)cc3)n(C[C@H](O)C(F)(F)F)c2=O)n1` [Example 299, N-Benzyl-2-[3-({3-(4-chlorophenyl)-5-oxo-4-[(2S)-3,3,3-trifluoro-2-hydroxypropyl]-4,5-dihydro-1H-1,2,4-triazol-1-yl}methyl)-1H-1,2,4-triazol-1-yl]benzamide] was tested, and the IC50 (human V1a receptor) was 4.4 nM, the “ratio IC50 hV2/hV1a” value (human V1a receptor) was 60.2 and the IC50 (human V2 receptor) was 265 nM.

For `O=C(Nc1ccncc1)c1ccccc1-n1cnc(Cn2nc(-c3ccc(Cl)cc3)n(C[C@H](O)C(F)(F)F)c2=O)n1` [Example 300, 2-[3-({3-(4-Chlorophenyl)-5-oxo-4-[(2S)-3,3,3-trifluoro-2-hydroxypropyl]-4,5-dihydro-1H-1,2,4-triazol-1-yl}methyl)-1H-1,2,4-triazol-1-yl]-N-(pyridin-4-yl)benzamide], the IC50 (human V1a receptor) was 1.02 nM, the “ratio IC50 hV2/hV1a” value (human V1a receptor) was 656.9 and the IC50 (human V2 receptor) was 670 nM.

In the case of `O=C(NCc1ccccn1)c1ccccc1-n1cnc(Cn2nc(-c3ccc(Cl)cc3)n(C[C@H](O)C(F)(F)F)c2=O)n1` [Example 301, 2-[3-({3-(4-Chlorophenyl)-5-oxo-4-[(2S)-3,3,3-trifluoro-2-hydroxypropyl]-4,5-dihydro-1H-1,2,4-triazol-1-yl}methyl)-1H-1,2,4-triazol-1-yl]-N-(pyridin-2-ylmethyl)benzamide], the IC50 (human V1a receptor) is reported as 8.75 nM, the “ratio IC50 hV2/hV1a” value (human V1a receptor) is reported as 69.7 and the IC50 (human V2 receptor) is reported as 610 nM.

In the case of `O=C(NCc1ccncc1)c1ccccc1-n1cnc(Cn2nc(-c3ccc(Cl)cc3)n(C[C@H](O)C(F)(F)F)c2=O)n1` [Example 302, 2-[3-({3-(4-Chlorophenyl)-5-oxo-4-[(2S)-3,3,3-trifluoro-2-hydroxypropyl]-4,5-dihydro-1H-1,2,4-triazol-1-yl}methyl)-1H-1,2,4-triazol-1-yl]-N-(pyridin-4-ylmethyl)benzamide], the IC50 (human V1a receptor) is reported as 3.75 nM, the “ratio IC50 hV2/hV1a” value (human V1a receptor) is reported as 880.0 and the IC50 (human V2 receptor) is reported as 3300 nM.

In the case of `O=C(Nc1ccc(F)cc1F)c1ccccc1-n1cnc(Cn2nc(-c3ccc(Cl)cc3)n(C[C@H](O)C(F)(F)F)c2=O)n1` [Example 303, 2-[3-({3-(4-Chlorophenyl)-5-oxo-4-[(2S)-3,3,3-trifluoro-2-hydroxypropyl]-4,5-dihydro-1H-1,2,4-triazol-1-yl}methyl)-1H-1,2,4-triazol-1-yl]-N-(2,4-difluorophenyl)benzamide], the IC50 (human V1a receptor) is reported as 2.15 nM, the “ratio IC50 hV2/hV1a” value (human V1a receptor) is reported as 234.9 and the IC50 (human V2 receptor) is reported as 505 nM.

In the case of `O=C(Nc1cc(F)ccc1F)c1ccccc1-n1cnc(Cn2nc(-c3ccc(Cl)cc3)n(C[C@H](O)C(F)(F)F)c2=O)n1` [Example 304, 2-[3-({3-(4-Chlorophenyl)-5-oxo-4-[(2S)-3,3,3-trifluoro-2-hydroxypropyl]-4,5-dihydro-1H-1,2,4-triazol-1-yl}methyl)-1H-1,2,4-triazol-1-yl]-N-(2,5-difluorophenyl)benzamide], the IC50 (human V1a receptor) is reported as 2.25 nM, the “ratio IC50 hV2/hV1a” value (human V1a receptor) is reported as 29.1 and the IC50 (human V2 receptor) is reported as 65.5 nM.

In the case of `O=C(Nc1ccccc1F)c1ccccc1-n1cnc(Cn2nc(-c3ccc(Cl)cc3)n(C[C@H](O)C(F)(F)F)c2=O)n1` [Example 305, 2-[3-({3-(4-Chlorophenyl)-5-oxo-4-[(2S)-3,3,3-trifluoro-2-hydroxypropyl]-4,5-dihydro-1H-1,2,4-triazol-1-yl}methyl)-1H-1,2,4-triazol-1-yl]-N-(2-fluorophenyl)benzamide], the IC50 (human V1a receptor) is reported as 0.97 nM, the “ratio IC50 hV2/hV1a” value (human V1a receptor) is reported as 55.7 and the IC50 (human V2 receptor) is reported as 54 nM.

`Cc1c(F)cccc1NC(=O)c1ccccc1-n1cnc(Cn2nc(-c3ccc(Cl)cc3)n(C[C@H](O)C(F)(F)F)c2=O)n1` [Example 306, 2-[3-({3-(4-Chlorophenyl)-5-oxo-4-[(2S)-3,3,3-trifluoro-2-hydroxypropyl]-4,5-dihydro-1H-1,2,4-triazol-1-yl}methyl)-1H-1,2,4-triazol-1-yl]-N-(3-fluoro-2-methylphenyl)benzamide] was tested, and the IC50 (human V1a receptor) was 1.6 nM, the “ratio IC50 hV2/hV1a” value (human V1a receptor) was 77.2 and the IC50 (human V2 receptor) was 124 nM.

For `Cc1ccc(F)c(NC(=O)c2ccccc2-n2cnc(Cn3nc(-c4ccc(Cl)cc4)n(C[C@H](O)C(F)(F)F)c3=O)n2)c1` [Example 307, 2-[3-({3-(4-Chlorophenyl)-5-oxo-4-[(2S)-3,3,3-trifluoro-2-hydroxypropyl]-4,5-dihydro-1H-1,2,4-triazol-1-yl}methyl)-1H-1,2,4-triazol-1-yl]-N-(2-fluoro-5-methylphenyl)benzamide], the IC50 (human V1a receptor) was 1.65 nM, the “ratio IC50 hV2/hV1a” value (human V1a receptor) was 106.1 and the IC50 (human V2 receptor) was 175 nM.

For `O=C(NN1CCOCC1)c1ccccc1-n1cnc(Cn2nc(-c3ccc(Cl)cc3)n(C[C@H](O)C(F)(F)F)c2=O)n1` [Example 308, 2-[3-({3-(4-Chlorophenyl)-5-oxo-4-[(2S)-3,3,3-trifluoro-2-hydroxypropyl]-4,5-dihydro-1H-1,2,4-triazol-1-yl}methyl)-1H-1,2,4-triazol-1-yl]-N-(morpholin-4-yl)benzamide], the IC50 (human V1a receptor) was 17.5 nM, the “ratio IC50 hV2/hV1a” value (human V1a receptor) was 188.6 and the IC50 (human V2 receptor) was 3300 nM.
